Results published in patent US20140370521A1, “IDENTIFICATION OF TWO NOVEL BIOMARKERS FOR NIEMANN-PICK DISEASE TYPE C” (The USA , as Represented by the Secretary, Department of …, priority 2011, published 2014).
Entries after “also recorded” stand apart in the source; their conditions may differ.

Key:
galectin-3 (LGALS3) = assay: Serum galectin-3 (LGALS3) by ELISA in NPC1 patients treated or not with miglustat; format: in vivo, human
Experimental: (§1) Since 60% of the patients were being treated with off-label miglustat, the effect of treatment on LGALS3 or CTSD concentrations were investigated. […] Since individual responses could be masked by the large degree of variation between patients, LGALS3 and CTSD concentrations were also assessed in serum samples from six patients before and after they begin the treatment.
(§2) The study was approved by the Eunice Kennedy Shriver National Institute of Child Health and Human Development Institutional Review Board. Informed consent and, when appropriate, assent were obtained. Serum samples were obtained from 16 male and 14 female NPC1 patients participating in a Natural History trial (06-CH-0186) and 16 control individuals of similar age and gender distribution. Mean age of patients and controls were 7.9±5.8 years old and 9.1±4.2 years old respectively (P-value=0.3720). Phenotypic severity was determined using the severity scale developed by Yanjanin et al., Am. J. Med. Genet. B. Neuropsychiatr. Genet. 153B:132-40 (2010), and ranged from 0 to 40. […]
(§3) Serum levels of cathepsin D (CTSD; EMD Millipore, Billerica, Mass.), and galectin-3 (LGALS3; R&D systems, Minneapolis, Minn.) were measured in triplicate by ELISA, following manufacturers' instructions. […]

[1] = NPC patients; Patterson et al., Lancet Neurol. 6:765-72 (2007); cited from earlier work
cathepsin D (CTSD) = assay: Serum cathepsin D (CTSD) by ELISA in NPC1 patients treated or not with miglustat; format: in vivo, human
Experimental: as §1, §2, §3

Q: Which results are given for CCCCN1C[C@H](O)[C@@H](O)[C@H](O)[C@H]1CO [miglustat]?
A: LGALS3 concentrations in serum of NPC patients treated or not with miglustat (galectin-3 (LGALS3); NPC1 patients, off-label miglustat versus untreated group, serum, FIG. 7B): No statistical difference; also recorded: no significant differences; Effect of miglustat treatment on LGALS3 level, before versus after start of treatment (galectin-3 (LGALS3); six patients, serum samples before and after beginning treatment, FIG. 7D): did not have any effect; Efficacy in slowing the neurological progression of the disease [1]: has shown efficacy in slowing the neurological progression of the disease; CTSD concentrations in serum of NPC patients treated or not with miglustat (cathepsin D (CTSD); NPC1 patients, off-label miglustat versus untreated group, serum, FIG. 7C): No statistical difference; also recorded: no significant differences; Effect of miglustat treatment on CTSD level, before versus after start of treatment (cathepsin D (CTSD); six patients, serum samples before and after beginning treatment, FIG. 7E): did not have any effect
